Reference: patent US9381193B2, “Contraceptive methods and compositions” (WASHINGTON UNIVERSITY, priority 2011, dated 2016)

What was measured:
[1] = target: T1, G6PDH (Mus musculus, UniProt Q00612); assay: G6PDH enzyme activity in single oocytes of DHEA-fed mice; format: in vivo
T1 construct: Individual oocytes or blastocysts were extracted in nanoliter volume under oil; from tissue; host or cells: denuded germinal vesicle oocytes of mice
Description: COCs were collected following superovulation with PMSG. Ovaries were removed and placed in M2 media (Sigma, St. Louis, Mo., USA). COCs were obtained by rupture of antral follicles with a syringe and needle. To collect denuded germinal vesicle (GV) oocytes, the cumulus cells were removed by gentle pipetting. The oviducts were removed from PMSG- and hCG-primed mice. The ampulla of the oviduct was punctured to release the clutch of ovulated oocytes 24 hr after hCG.
(§1) Denuded oocytes or cultured blastocysts were frozen on a glass slide with liquid nitrogen and dried overnight at −35° C. under vacuum. Individual oocytes or blastocysts were extracted in nanoliter volume under oil. Assays were designed to measure ATP, citrate and G6PDH by linking with NAD/NADH or NADP/NADPH which are enzymatically amplified in a cycling reaction allowing products to be measured by fluorometry.

[2] = system: ICR female mice; assay: Intrauterine DHEA or 6-AN pellet and pregnancy outcome; format: in vivo, mouse
Procedure: ICR female mice had either placebo (n=26), DHEA (1.5 mg/60 days)(n=20), or 6-AN pellets (150, 15, 1.5 mcg/60 days)(n=24) placed into the uterine horn after index delivery. Females were then mated and litter size was measured over the following 120 days post pellet. Mice were housed according to the Institutional Animal Care and use Committee and NIH guidelines. Day to first litter, number of litters, number of pups, average pups/litter were recorded. Serum DHEA levels were quantified (Alpco, Salem, N.H.). All pellets (placebo, DHEA, 6-AN) were custom-formulated (Innovative Research, Inc).

[3] = system: blastocysts; assay: ATP and citrate levels in blastocysts cultured from two-cell embryos with DHEA; format: cell-based, mouse
Procedure: Mice were superovulated and mated with males of known fertility. Forty-five hours after injection with hCG, the oviducts were removed. Two-cell embryos were collected by flushing the oviducts with human tubal fluid media (HTF) with 0.25% BSA. Embryos were cultured in HTF with BSA and either DMSO, 10 μM DHEA or 100 μM DHEA for 72 hours. In vitro cultured blastocysts were transferred to 2.5 days postcoitus (dpc) pseudopregnant ICR females. Resulting embryos and placentas were collected at 14.5 dpc and fixed with Bouin's solution, embedded in paraffin and sectioned.
as §1

[4] = system: FVB/NJ mice; assay: Artificially induced deciduoma in ovariectomized mice; format: in vivo, mouse
Procedure: (§2) This induced deciduoma model allowed the study of the effect of increased DHEA on implantation independently of embryo development and ovarian function. Female mice 6-8 weeks of age were ovariectomized and rested for 2 weeks. […] At day 2 before induction, the experimental mice also began receiving DHEA at 2 mg/100 g of body weight. The control mice received no DHEA. At day 0, one uterine horn in each animal was subjected to a physical stimulus, 100 μL sesame seed oil injection, to induce a deciduoma. The second horn was left as the unstimulated internal control for each mouse. Day 0 in this case is equivalent to the day of embryo implantation in a physiological mouse pregnancy, which is 4 days post coitus. Five days after the oil injection, uterine horns were dissected out. First the gross anatomies of the uteri were assessed. Representative tissues from two mice in each treatment group are shown (FIG. 7B). […] Protein was isolated from all uterine horns in order to measure the expression of a well-established decidualization protein marker, Bmp2. […] Bmp2 expression was almost undetectable in the unstimulated uterine horns. […] In the same line of experiments, the serum hormone levels were also measured to confirm that findings were strictly the result of increased levels of DHEA.
(§3) Decidualization in vivo under chronically elevated levels of DHEA was also tested. The ovariectomy mouse model described above was used with the following changes: DHEA was administered orally (0.6% supplementation in regular chow diet) starting on the day of ovariectomy. The mice were on the diet for 2 weeks prior to the beginning of the hormone regiments described in FIG. 7A. In FIG. 8A, representative uterine horns are shown from control mice (receiving regular chow) and the treatment mice on 0.6% DHEA diet. […] A quantitative analysis of the decidual reaction in shown in FIG. 8B, where the mass of the uterine horns is shown. Lastly, it should be noted that ovariectomised mice, similar to post-menopausal women, tend to have increased body fat percentage.
(§4) To generate deciduomas 7-8 wk-old female FVB/NJ mice were used and treated as described previously. A time line of the hormone administrations is presented in FIG. 7a, adapted from Herington et al. Briefly, mice were ovariectomized and allowed 2 weeks for recovery. They were then injected with 100 ng 17b-estradiol (E2) (Sigma) for three days, rested two days, and then injected with 10 ng E2/1 μg Progesterone (P4, Sigma) for three days. […] Immediately following the last of the above sensitization injections, the right uterine horn received an intra-luminal injection of 100 μL of sunflower seed oil. Mice continued to receive 1 μg P4 subcutaneously for up to 4 days. Mice receiving the DHEA treatment received […] starting on the day the E2/P4 injections were begun and continued for the 7 days following, until mice were sacrificed. On the day following the last injection, serum samples were collected, the mice were sacrificed and uterine horns dissected out. Serum DHEA, E2 and P4 levels were analyzed by ELISA assays (Alpco Immunoassays).

[5] = as above; format: in vivo, mouse; details: female, FVB/NJ, mouse, serum, subcutaneous, 2 mg/100 g of body weight; measured on day +5; DHEA-treated group; read-out: Serum DHEA levels
Procedure: as §2, §3, §4

[6] = system: FVB/NJ mice; assay: Pregnancy rates / litters of DHEA-fed mice; format: in vivo, mouse
Procedure: To determine the reversibility of DHEA, mice were fed the two higher DHEA diets that prevented normal estrous cycles for two weeks followed by regular rodent chow for two weeks. Estrous cycles and pregnancy rates were recorded.
Female FVB/NJ mice were obtained from Jackson Laboratories (Bar Harbor, Me., USA). Regular rodent chow was supplemented with DHEA at 0.01%, 0.1% and 0.6% w/w. Three-week-old mice had access to food and water ad libitum. Mice were fed control or DHEA-supplemented chow for two weeks. The Animal Studies Committee at Washington University School of Medicine reviewed and approved all animal experiments. Animals were maintained according to the Guide for the Care and Use of Laboratory Animals provided by the Institute for Laboratory Animal Research.
Control and DHEA-fed mice were mated with males of known fertility until three litters were delivered or up to 12 weeks.

T1 sequence (Q00612 whole entry): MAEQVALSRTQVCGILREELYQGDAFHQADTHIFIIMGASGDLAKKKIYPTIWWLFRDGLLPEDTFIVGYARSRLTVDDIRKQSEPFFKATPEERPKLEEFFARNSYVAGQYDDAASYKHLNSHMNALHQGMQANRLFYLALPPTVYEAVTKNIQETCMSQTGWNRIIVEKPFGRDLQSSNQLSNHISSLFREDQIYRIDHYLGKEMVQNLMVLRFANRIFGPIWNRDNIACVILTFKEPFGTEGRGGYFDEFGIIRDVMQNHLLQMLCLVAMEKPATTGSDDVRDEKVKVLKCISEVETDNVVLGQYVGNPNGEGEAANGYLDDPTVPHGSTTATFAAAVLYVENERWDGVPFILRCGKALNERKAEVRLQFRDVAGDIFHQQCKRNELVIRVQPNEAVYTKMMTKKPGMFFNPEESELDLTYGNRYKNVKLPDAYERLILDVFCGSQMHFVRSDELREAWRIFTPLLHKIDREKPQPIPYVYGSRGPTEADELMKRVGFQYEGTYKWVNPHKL

In the case of `C[C@]12CC[C@H](O)CC1=CC[C@@H]1[C@@H]2CC[C@]2(C)C(=O)CC[C@@H]12` [DHEA, dehydroepiandrosterone], the G6PDH activity ([1]; 0.01% DHEA and 0.1% DHEA groups) is reported as “decreased”, the “G6PDH activity, of normal” value ([1]; 0.1% DHEA diet) is reported as 87% and the “Mean serum levels of DHEA” value ([2]; DHEA pellet group, controls 0.265) is reported as 0.512 ng/mL. For the same compound, the Average pups/litter ([2]; DHEA pellet, after 60 days, control 12.3) was 10.3 pups/litter, the “Reduction of average pups/litter size” value ([2]; DHEA pellet, first litter after placement of the pellet) was 55% and the Average pups/litter ([2]; DHEA pellet, first litter, control 13.0) was 5.9 pups/litter. For the same compound, the “Average time to first litter” value ([2]; intrauterine pellet: DHEA 1.5 mg/60 days, 6-AN 150, 15, 1.5 mcg/60 days, controls 27 days) was 34 days, the “Citrate levels of control” value ([3]; 10 μM DHEA) was 86% and the “Citrate levels of control” value ([3]; 100 μM DHEA) was 68%. The “Deciduoma formation under chronic DHEA” value ([4]; 0.6% DHEA in chow, oral, from day of ovariectomy) was “no difference between the stimulated and unstimulated uterine horns”, the “Decrease in Bmp2 protein induction in deciduomas vs control mice (Western blot)” value ([4]; DHEA 2 mg/100 g of body weight) was 3 fold and the “Decrease in the decidual response by uterine mass vs controls” value ([4]; DHEA 2 mg/100 g of body weight) was ~3 fold. The “Morphology of uterine cross sections of stimulated horns” value ([4]; DHEA 2 mg/100 g of body weight) was “no decidual cells”, the “Gross deciduoma formation along the stimulated uterine horn” value ([4]; DHEA 2 mg/100 g of body weight from day 2 before induction, 5 days after oil injection) was “weak, if any, deciduoma formation” and the concentration at 5 day (after oil injection on day 0) [5] was 32.6 ng/mL. The “Litters while on diet” value ([6]; 0.01% DHEA diet) was “the litters were smaller than the controls” and the “Litters while on diet” value ([6]; 0.1% and 0.6% DHEA diet) was “did not deliver any pups”.
